The numbers were not newly measured in patent US20130302415A1, “Pharmaceutical Composition” (CIPLA Limited, priority 2010, published 2013), which cites them from elsewhere.

The conditions of this series: class II = low solubility, high permeability.

Regarding `O=C1Nc2ccc(Cl)cc2[C@@](C#CC2CC2)(C(F)(F)F)O1` [Efavirenz, (S)-6-chloro-4-cyclopropylethynyl-4-trifluoromethyl-1,4-dihydro-2H-3,1-benzoxazin-2-one], the “Biopharmaceutical Classification System class” value is recorded as “class II”.
